Values after ≈ are worked out from the molar mass of the structure shown.
How the values were obtained:
Type in all cases: functional
Cryptococcus neoformans = test: Antifungal activity against Cryptococcus neoformans LA314 assessed as reduction in fungal cell growth incubated for 48 hrs by broth microdilution method; conditions: LA314, 48 h
Nakaseomyces glabratus = test: Antifungal activity against Candida glabrata assessed as reduction in fungal cell growth incubated for 48 hrs by broth microdilution method
Candida parapsilosis = test: Antifungal activity against Candida parapsilosis ATCC 22019 assessed as reduction in fungal cell growth incubated for 48 hrs by broth microdilution method; conditions: Lodderomyces parapsilosis, ATCC 22019, 48 h
Pichia kudriavzevii = test: Antifungal activity against Candida krusei assessed as reduction in fungal cell growth incubated for 48 hrs by broth microdilution method
Candida albicans = test: Antifungal activity against Candida albicans assessed as reduction in fungal cell growth incubated for 48 hrs by broth microdilution method
Candida tropicalis = test: Antifungal activity against Candida tropicalis assessed as reduction in fungal cell growth incubated for 48 hrs by broth microdilution method
Aspergillus niger = test: Antifungal activity against Aspergillus niger assessed as reduction in fungal cell growth incubated for 72 hrs by broth microdilution method

MIC (Cryptococcus neoformans) | MIC (Nakaseomyces glabratus) | MIC (Candida parapsilosis) | MIC (Pichia kudriavzevii) | MIC (Candida albicans) | MIC (Candida tropicalis) | MIC (Aspergillus niger) | Compound
1 to 16 µg/mL (≈ 1.96 to 31.3 µM) | 1 to 16 µg/mL (≈ 1.96 to 31.3 µM) | 1 to 16 µg/mL (≈ 1.96 to 31.3 µM) | 1 to 16 µg/mL (≈ 1.96 to 31.3 µM) | 1 to 16 µg/mL (≈ 1.96 to 31.3 µM) | 1 to 16 µg/mL (≈ 1.96 to 31.3 µM) | 1 to 16 µg/mL (≈ 1.96 to 31.3 µM) | CC(n1nnc(CCN2CCN(c3ccccn3)CC2)n1)C(O)(Cn1cncn1)c1ccc(F)cc1F (stereo unspecified)
0.5 to 16 µg/mL (≈ 0.919 to 29.4 µM) | 0.5 to 16 µg/mL (≈ 0.919 to 29.4 µM) | 0.5 to 16 µg/mL (≈ 0.919 to 29.4 µM) | 0.5 to 16 µg/mL (≈ 0.919 to 29.4 µM) | 0.5 to 16 µg/mL (≈ 0.919 to 29.4 µM) | 0.5 to 16 µg/mL (≈ 0.919 to 29.4 µM) | 0.5 to 16 µg/mL (≈ 0.919 to 29.4 µM) | CC(n1nnnc1CCN1CCN(c2ccc(Cl)cc2)CC1)C(O)(Cn1cncn1)c1ccc(F)cc1F (stereo unspecified)
0.5 to 16 µg/mL (≈ 0.927 to 29.7 µM) | 0.5 to 16 µg/mL (≈ 0.927 to 29.7 µM) | 0.5 to 16 µg/mL (≈ 0.927 to 29.7 µM) | 0.5 to 16 µg/mL (≈ 0.927 to 29.7 µM) | 0.5 to 16 µg/mL (≈ 0.927 to 29.7 µM) | 0.5 to 16 µg/mL (≈ 0.927 to 29.7 µM) | 0.5 to 16 µg/mL (≈ 0.927 to 29.7 µM) | COc1ccccc1N1CCN(CCc2nnnn2C(C)C(O)(Cn2cncn2)c2ccc(F)cc2F)CC1 (stereo unspecified)
1 to 16 µg/mL (≈ 1.72 to 27.5 µM) | 1 to 16 µg/mL (≈ 1.72 to 27.5 µM) | 1 to 16 µg/mL (≈ 1.72 to 27.5 µM) | 1 to 16 µg/mL (≈ 1.72 to 27.5 µM) | 1 to 16 µg/mL (≈ 1.72 to 27.5 µM) | 1 to 16 µg/mL (≈ 1.72 to 27.5 µM) | 1 to 16 µg/mL (≈ 1.72 to 27.5 µM) | CCCCOc1ccccc1N1CCN(CCc2nnn(C(C)C(O)(Cn3cncn3)c3ccc(F)cc3F)n2)CC1 (stereo unspecified)
0.25 to 16 µg/mL (≈ 0.417 to 26.7 µM) | 0.25 to 16 µg/mL (≈ 0.417 to 26.7 µM) | 0.25 to 16 µg/mL (≈ 0.417 to 26.7 µM) | 0.25 to 16 µg/mL (≈ 0.417 to 26.7 µM) | 0.25 to 16 µg/mL (≈ 0.417 to 26.7 µM) | 0.25 to 16 µg/mL (≈ 0.417 to 26.7 µM) | 0.25 to 16 µg/mL (≈ 0.417 to 26.7 µM) | C[C@H](n1nnc(CCN2CCN(C(c3ccccc3)c3ccccc3)CC2)n1)[C@](O)(Cn1cncn1)c1ccc(F)cc1F
1 to 16 µg/mL (≈ 2.01 to 32.2 µM) | 1 to 16 µg/mL (≈ 2.01 to 32.2 µM) | 1 to 16 µg/mL (≈ 2.01 to 32.2 µM) | 1 to 16 µg/mL (≈ 2.01 to 32.2 µM) | 1 to 16 µg/mL (≈ 2.01 to 32.2 µM) | 1 to 16 µg/mL (≈ 2.01 to 32.2 µM) | 1 to 16 µg/mL (≈ 2.01 to 32.2 µM) | OC(Cn1cncn1)(Cn1nnc(CCN2CCN(c3ccccn3)CC2)n1)c1ccc(F)cc1F (stereo unspecified)
1 to 16 µg/mL (≈ 1.8 to 28.9 µM) | 1 to 16 µg/mL (≈ 1.8 to 28.9 µM) | 1 to 16 µg/mL (≈ 1.8 to 28.9 µM) | 1 to 16 µg/mL (≈ 1.8 to 28.9 µM) | 1 to 16 µg/mL (≈ 1.8 to 28.9 µM) | 1 to 16 µg/mL (≈ 1.8 to 28.9 µM) | 1 to 16 µg/mL (≈ 1.8 to 28.9 µM) | CC(n1nnc(CCN2CCN(c3ccc([N+](=O)[O-])cc3)CC2)n1)C(O)(Cn1cncn1)c1ccc(F)cc1F (stereo unspecified)
1 to 16 µg/mL (≈ 1.67 to 26.7 µM) | 1 to 16 µg/mL (≈ 1.67 to 26.7 µM) | 1 to 16 µg/mL (≈ 1.67 to 26.7 µM) | 1 to 16 µg/mL (≈ 1.67 to 26.7 µM) | 1 to 16 µg/mL (≈ 1.67 to 26.7 µM) | 1 to 16 µg/mL (≈ 1.67 to 26.7 µM) | 1 to 16 µg/mL (≈ 1.67 to 26.7 µM) | CC(n1nnc(CCN2CCN(C(c3ccccc3)c3ccccc3)CC2)n1)C(O)(Cn1cncn1)c1ccc(F)cc1F (stereo unspecified)
0.5 to 16 µg/mL (≈ 0.919 to 29.4 µM) | 0.5 to 16 µg/mL (≈ 0.919 to 29.4 µM) | 0.5 to 16 µg/mL (≈ 0.919 to 29.4 µM) | 0.5 to 16 µg/mL (≈ 0.919 to 29.4 µM) | 0.5 to 16 µg/mL (≈ 0.919 to 29.4 µM) | 0.5 to 16 µg/mL (≈ 0.919 to 29.4 µM) | 0.5 to 16 µg/mL (≈ 0.919 to 29.4 µM) | CC(n1nnnc1CCN1CCN(c2ccccc2Cl)CC1)C(O)(Cn1cncn1)c1ccc(F)cc1F (stereo unspecified)
1 to 16 µg/mL (≈ 1.89 to 30.2 µM) | 1 to 16 µg/mL (≈ 1.89 to 30.2 µM) | 1 to 16 µg/mL (≈ 1.89 to 30.2 µM) | 1 to 16 µg/mL (≈ 1.89 to 30.2 µM) | 1 to 16 µg/mL (≈ 1.89 to 30.2 µM) | 1 to 16 µg/mL (≈ 1.89 to 30.2 µM) | 1 to 16 µg/mL (≈ 1.89 to 30.2 µM) | OC(Cn1cncn1)(Cn1nnc(CCN2CCN(c3ccc(Cl)cc3)CC2)n1)c1ccc(F)cc1F (stereo unspecified)
0.25 to 16 µg/mL (≈ 0.49 to 31.3 µM) | 0.25 to 16 µg/mL (≈ 0.49 to 31.3 µM) | 0.25 to 16 µg/mL (≈ 0.49 to 31.3 µM) | 0.25 to 16 µg/mL (≈ 0.49 to 31.3 µM) | 0.25 to 16 µg/mL (≈ 0.49 to 31.3 µM) | 0.25 to 16 µg/mL (≈ 0.49 to 31.3 µM) | 0.25 to 16 µg/mL (≈ 0.49 to 31.3 µM) | C[C@H](n1nnc(CCN2CCN(c3ccccn3)CC2)n1)[C@](O)(Cn1cncn1)c1ccc(F)cc1F
1 to 16 µg/mL (≈ 1.91 to 30.6 µM) | 1 to 16 µg/mL (≈ 1.91 to 30.6 µM) | 1 to 16 µg/mL (≈ 1.91 to 30.6 µM) | 1 to 16 µg/mL (≈ 1.91 to 30.6 µM) | 1 to 16 µg/mL (≈ 1.91 to 30.6 µM) | 1 to 16 µg/mL (≈ 1.91 to 30.6 µM) | 1 to 16 µg/mL (≈ 1.91 to 30.6 µM) | CC(n1nnc(CCN2CCN(Cc3ccccc3)CC2)n1)C(O)(Cn1cncn1)c1ccc(F)cc1F (stereo unspecified)
0.12 to 16 µg/mL (≈ 0.222 to 29.7 µM) | 0.12 to 16 µg/mL (≈ 0.222 to 29.7 µM) | 0.12 to 16 µg/mL (≈ 0.222 to 29.7 µM) | 0.12 to 16 µg/mL (≈ 0.222 to 29.7 µM) | 0.12 to 16 µg/mL (≈ 0.222 to 29.7 µM) | 0.12 to 16 µg/mL (≈ 0.222 to 29.7 µM) | 0.12 to 16 µg/mL (≈ 0.222 to 29.7 µM) | COc1ccc(N2CCN(CCc3nnnn3[C@@H](C)[C@](O)(Cn3cncn3)c3ccc(F)cc3F)CC2)cc1
0.5 to 16 µg/mL (≈ 0.951 to 30.4 µM) | 0.5 to 16 µg/mL (≈ 0.951 to 30.4 µM) | 0.5 to 16 µg/mL (≈ 0.951 to 30.4 µM) | 0.5 to 16 µg/mL (≈ 0.951 to 30.4 µM) | 0.5 to 16 µg/mL (≈ 0.951 to 30.4 µM) | 0.5 to 16 µg/mL (≈ 0.951 to 30.4 µM) | 0.5 to 16 µg/mL (≈ 0.951 to 30.4 µM) | COc1ccccc1N1CCN(CCc2nnnn2CC(O)(Cn2cncn2)c2ccc(F)cc2F)CC1 (stereo unspecified)
1 to 16 µg/mL (≈ 1.96 to 31.4 µM) | 1 to 16 µg/mL (≈ 1.96 to 31.4 µM) | 1 to 16 µg/mL (≈ 1.96 to 31.4 µM) | 1 to 16 µg/mL (≈ 1.96 to 31.4 µM) | 1 to 16 µg/mL (≈ 1.96 to 31.4 µM) | 1 to 16 µg/mL (≈ 1.96 to 31.4 µM) | 1 to 16 µg/mL (≈ 1.96 to 31.4 µM) | CC(n1nnc(CCN2CCN(c3ccccc3)CC2)n1)C(O)(Cn1cncn1)c1ccc(F)cc1F (stereo unspecified)
0.5 to 16 µg/mL (≈ 0.887 to 28.4 µM) | 0.5 to 16 µg/mL (≈ 0.887 to 28.4 µM) | 0.5 to 16 µg/mL (≈ 0.887 to 28.4 µM) | 0.5 to 16 µg/mL (≈ 0.887 to 28.4 µM) | 0.5 to 16 µg/mL (≈ 0.887 to 28.4 µM) | 0.5 to 16 µg/mL (≈ 0.887 to 28.4 µM) | 0.5 to 16 µg/mL (≈ 0.887 to 28.4 µM) | OC(Cn1cncn1)(Cn1nnnc1CCN1CCN(c2cccc(C(F)(F)F)c2)CC1)c1ccc(F)cc1F (stereo unspecified)
0.12 to 16 µg/mL (≈ 0.221 to 29.4 µM) | 0.12 to 16 µg/mL (≈ 0.221 to 29.4 µM) | 0.12 to 16 µg/mL (≈ 0.221 to 29.4 µM) | 0.12 to 16 µg/mL (≈ 0.221 to 29.4 µM) | 0.12 to 16 µg/mL (≈ 0.221 to 29.4 µM) | 0.12 to 16 µg/mL (≈ 0.221 to 29.4 µM) | 0.12 to 16 µg/mL (≈ 0.221 to 29.4 µM) | C[C@H](n1nnnc1CCN1CCN(c2ccc(Cl)cc2)CC1)[C@](O)(Cn1cncn1)c1ccc(F)cc1F
0.5 to 16 µg/mL (≈ 0.979 to 31.3 µM) | 0.5 to 16 µg/mL (≈ 0.979 to 31.3 µM) | 0.5 to 16 µg/mL (≈ 0.979 to 31.3 µM) | 0.5 to 16 µg/mL (≈ 0.979 to 31.3 µM) | 0.5 to 16 µg/mL (≈ 0.979 to 31.3 µM) | 0.5 to 16 µg/mL (≈ 0.979 to 31.3 µM) | 0.5 to 16 µg/mL (≈ 0.979 to 31.3 µM) | CC(n1nnnc1CCN1CCN(c2ccccn2)CC1)C(O)(Cn1cncn1)c1ccc(F)cc1F (stereo unspecified)

From ChEMBL document CHEMBL4393657, “Tetrazole hybrids and their antifungal activities” (2019)
